Assay results published in patent US6472348B1, “Pyridone derivatives and herbicides” (Kumiai Chemical Industry Co., Ltd., priority 1996, dated 2002).

Legend:
Type in all cases: in vivo
Design in all cases: scale not given here
China jute (Ab) = assay: Test Example 6: crop plant selectivity by upland field soil treatment (soybean), herbicidal effects; details: 21st day after application
Procedure, shortened: (§1)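 Soybean and weed seeds were sown in sand-filled pots and covered with soil, then given a pre-emergence soil application. Plants were grown on in a greenhouse, and herbicidal effect and crop phytotoxicity were scored against a set rating scale 21 days after application.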

[1] = test system: common lambsquarters (Ch); assay: as above; details: 21st day after application
Procedure, shortened: as §1

green foxtail (Se) = assay: as above; details: 21st day after application
Procedure, shortened: as §1

pale smartweed (Po) = assay: as above; details: 21st day after application
Procedure, shortened: as §1

slender amaranth (Am) [2] = assay: as above; details: 21st day after application
Procedure, shortened: as §1

[3] = test system: common lambsquarters (Ch); assay: Test Example 11: crop plant selectivity by upland field foliage treatment (corn), herbicidal effects
Procedure, shortened: (§2)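 Corn with pale smartweed, slender amaranth, common lambsquarters and China jute sown in sand-filled pots and grown 2 weeks in a greenhouse before foliage treatment. Herbicidal effect and crop phytotoxicity scored on day 14 after treatment against a rating standard.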

slender amaranth (Am) [4] = assay: as above
Procedure, shortened: as §2

[5] = upland field foliage treatment (corn test), dose 1.6 g ai/10a, 14th day after treatment
[6] = upland field foliage treatment (corn test), dose 0.1 g ai/10a, 14th day after treatment

CCc1cc2c(-c3ccc(C(F)(F)F)n(C)c3=O)c(F)cc(Cl)c2o1 [Compound 4-2]
5: Herbicidal effects Ab (China jute (Ab); dose 1.6 g ai/10a) | Herbicidal effects Ch ([1]; dose 1.6 g ai/10a) | Herbicidal effects Se (green foxtail (Se); dose 1.6 g ai/10a) | Herbicidal effects Po (pale smartweed (Po); dose 1.6 g ai/10a) | Herbicidal effects Am (slender amaranth (Am) [2]; dose 1.6 g ai/10a)

C=CCOc1cc(-c2ccc(C(F)(F)F)n(C)c2=O)c(F)cc1Cl [1-16]
5: Herbicidal effects Ab (China jute (Ab); dose 1.6 g ai/10a) | Herbicidal effects Ch ([1]; dose 1.6 g ai/10a) | Herbicidal effects Se (green foxtail (Se); dose 1.6 g ai/10a) | Herbicidal effects Po (pale smartweed (Po); dose 1.6 g ai/10a) | Herbicidal effects Am (slender amaranth (Am) [2]; dose 1.6 g ai/10a) | Herbicidal effects Ch [3, 5] | Herbicidal effects Am (slender amaranth (Am) [4]; [5])

C#CC(C)Oc1cc(-c2ccc(C(F)(F)F)n(C)c2=O)c(F)cc1Cl (centres unmarked) [1-17]
5: Herbicidal effects Ab (China jute (Ab); dose 1.6 g ai/10a) | Herbicidal effects Ch ([1]; dose 1.6 g ai/10a) | Herbicidal effects Se (green foxtail (Se); dose 1.6 g ai/10a) | Herbicidal effects Po (pale smartweed (Po); dose 1.6 g ai/10a) | Herbicidal effects Am (slender amaranth (Am) [2]; dose 1.6 g ai/10a)

C=CCN1C(=O)COc2cc(F)c(-c3ccc(C(F)(F)F)n(C)c3=O)cc21 [Compound 2-7]
5: Herbicidal effects Ab (China jute (Ab); dose 1.6 g ai/10a) | Herbicidal effects Ab (China jute (Ab); dose 6.3 g ai/10a) | Herbicidal effects Ch ([1]; dose 1.6 g ai/10a) | Herbicidal effects Ch ([1]; dose 6.3 g ai/10a) | Herbicidal effects Se (green foxtail (Se); dose 1.6 g ai/10a) | Herbicidal effects Se (green foxtail (Se); dose 6.3 g ai/10a) | Herbicidal effects Po (pale smartweed (Po); dose 1.6 g ai/10a) | Herbicidal effects Po (pale smartweed (Po); dose 6.3 g ai/10a) | Herbicidal effects Am (slender amaranth (Am) [2]; dose 1.6 g ai/10a) | Herbicidal effects Am (slender amaranth (Am) [2]; dose 6.3 g ai/10a)

CCOCOc1cc(-c2ccc(C(F)(F)F)n(C)c2=O)c(F)cc1Cl [1-181]
5: Herbicidal effects Ab (China jute (Ab); dose 6.3 g ai/10a) | Herbicidal effects Ch ([1]; dose 6.3 g ai/10a) | Herbicidal effects Se (green foxtail (Se); dose 6.3 g ai/10a) | Herbicidal effects Po (pale smartweed (Po); dose 6.3 g ai/10a) | Herbicidal effects Am (slender amaranth (Am) [2]; dose 6.3 g ai/10a) | Herbicidal effects Ch [3, 5] | Herbicidal effects Am (slender amaranth (Am) [4]; [5])

Cc1cc2c(-c3ccc(C(F)(F)F)n(C)c3=O)c(F)cc(Cl)c2o1 [Compound 4-1]
5: Herbicidal effects Ab (China jute (Ab); dose 1.6 g ai/10a) | Herbicidal effects Ab (China jute (Ab); dose 6.3 g ai/10a) | Herbicidal effects Ch ([1]; dose 1.6 g ai/10a) | Herbicidal effects Ch ([1]; dose 6.3 g ai/10a) | Herbicidal effects Se (green foxtail (Se); dose 1.6 g ai/10a) | Herbicidal effects Se (green foxtail (Se); dose 6.3 g ai/10a) | Herbicidal effects Po (pale smartweed (Po); dose 1.6 g ai/10a) | Herbicidal effects Po (pale smartweed (Po); dose 6.3 g ai/10a) | Herbicidal effects Am (slender amaranth (Am) [2]; dose 1.6 g ai/10a) | Herbicidal effects Am (slender amaranth (Am) [2]; dose 6.3 g ai/10a)

C=CC(C)Oc1cc(-c2ccc(C(F)(F)F)n(C)c2=O)c(F)cc1Cl (centres unmarked) [Compound 1-182]
5: Herbicidal effects Ab (China jute (Ab); dose 6.3 g ai/10a) | Herbicidal effects Ch ([1]; dose 6.3 g ai/10a) | Herbicidal effects Se (green foxtail (Se); dose 6.3 g ai/10a) | Herbicidal effects Po (pale smartweed (Po); dose 6.3 g ai/10a) | Herbicidal effects Am (slender amaranth (Am) [2]; dose 6.3 g ai/10a) | Herbicidal effects Ch [3, 5] | Herbicidal effects Am (slender amaranth (Am) [4]; [5])

CON=Cc1cc(-c2ccc(C(F)(F)F)n(C)c2=O)c(F)cc1Cl [Compound No. 1-72, 5-(1-methyl-6-trifluoromethyl-2(1H)-pyridon-3-yl)-2-chloro-4-fluorobenzaldehydeoxime-O-methyl ether]
5: Herbicidal effects Ab (China jute (Ab); dose 1.6 g ai/10a) | Herbicidal effects Ab (China jute (Ab); dose 6.3 g ai/10a) | Herbicidal effects Ch ([1]; dose 1.6 g ai/10a) | Herbicidal effects Ch ([1]; dose 6.3 g ai/10a) | Herbicidal effects Se (green foxtail (Se); dose 1.6 g ai/10a) | Herbicidal effects Se (green foxtail (Se); dose 6.3 g ai/10a) | Herbicidal effects Po (pale smartweed (Po); dose 1.6 g ai/10a) | Herbicidal effects Po (pale smartweed (Po); dose 6.3 g ai/10a) | Herbicidal effects Am (slender amaranth (Am) [2]; dose 1.6 g ai/10a) | Herbicidal effects Am (slender amaranth (Am) [2]; dose 6.3 g ai/10a) | Herbicidal effects Ch [3, 5] | Herbicidal effects Am (slender amaranth (Am) [4]; [5])

C#CCOc1cc(-c2ccc(C(F)(F)F)n(C)c2=O)c(Cl)cc1Cl [1-30]
5: Herbicidal effects Ab (China jute (Ab); dose 1.6 g ai/10a) | Herbicidal effects Ch ([1]; dose 1.6 g ai/10a) | Herbicidal effects Se (green foxtail (Se); dose 1.6 g ai/10a) | Herbicidal effects Po (pale smartweed (Po); dose 1.6 g ai/10a) | Herbicidal effects Am (slender amaranth (Am) [2]; dose 1.6 g ai/10a) | Herbicidal effects Ch [3, 5] | Herbicidal effects Am (slender amaranth (Am) [4]; [5])

C#CCN1C(=O)COc2cc(F)c(-c3cn(C)c(C(F)(F)F)cc3=O)cc21 [Compound 7-1]
5: Herbicidal effects Ab (China jute (Ab); dose 6.3 g ai/10a) | Herbicidal effects Ch ([1]; dose 6.3 g ai/10a) | Herbicidal effects Se (green foxtail (Se); dose 6.3 g ai/10a) | Herbicidal effects Po (pale smartweed (Po); dose 6.3 g ai/10a) | Herbicidal effects Ch ([3]; common lambsquarters, foliage treatment, dose 1.6 g ai/10a, evaluated on 14th day after treatment, index per Table 47) | Herbicidal effects Am (slender amaranth (Am) [4]; slender amaranth, foliage treatment, dose 1.6 g ai/10a, evaluated on 14th day after treatment, index per Table 47)

C#CCSc1cc(-c2ccc(C(F)(F)F)n(C)c2=O)c(F)cc1Cl [1-44]
5: Herbicidal effects Ab (China jute (Ab); dose 6.3 g ai/10a) | Herbicidal effects Ch ([1]; dose 6.3 g ai/10a) | Herbicidal effects Se (green foxtail (Se); dose 6.3 g ai/10a) | Herbicidal effects Po (pale smartweed (Po); dose 6.3 g ai/10a) | Herbicidal effects Am (slender amaranth (Am) [2]; dose 6.3 g ai/10a)

C#CCN1C(=O)COc2cc(F)c(-c3ccc(C(F)(F)F)n(C)c3=O)cc21 [Compound No. 2-1, 3-[7-fluoro-2,3-dihydro-4-(2-propynyl)-1,4-benzoxazin-3-on-6-yl]-1-methyl-6-trifluoromethyl-2(1H)-pyridone]
5: Herbicidal effects Ab (China jute (Ab); dose 1.6 g ai/10a) | Herbicidal effects Ab (China jute (Ab); dose 6.3 g ai/10a) | Herbicidal effects Ch ([1]; dose 1.6 g ai/10a) | Herbicidal effects Ch ([1]; dose 6.3 g ai/10a) | Herbicidal effects Se (green foxtail (Se); dose 1.6 g ai/10a) | Herbicidal effects Se (green foxtail (Se); dose 6.3 g ai/10a) | Herbicidal effects Po (pale smartweed (Po); dose 1.6 g ai/10a) | Herbicidal effects Po (pale smartweed (Po); dose 6.3 g ai/10a) | Herbicidal effects Am (slender amaranth (Am) [2]; dose 1.6 g ai/10a) | Herbicidal effects Am (slender amaranth (Am) [2]; dose 6.3 g ai/10a) | Herbicidal effects Ch [3, 6] | Herbicidal effects Am (slender amaranth (Am) [4]; [6])

CCOC(=O)c1cc(-c2ccc(C(F)(F)F)n(C)c2=O)c(F)cc1Cl [1-65]
5: Herbicidal effects Ab (China jute (Ab); dose 1.6 g ai/10a) | Herbicidal effects Ab (China jute (Ab); dose 6.3 g ai/10a) | Herbicidal effects Ch ([1]; dose 1.6 g ai/10a) | Herbicidal effects Ch ([1]; dose 6.3 g ai/10a) | Herbicidal effects Se (green foxtail (Se); dose 1.6 g ai/10a) | Herbicidal effects Se (green foxtail (Se); dose 6.3 g ai/10a) | Herbicidal effects Po (pale smartweed (Po); dose 1.6 g ai/10a) | Herbicidal effects Po (pale smartweed (Po); dose 6.3 g ai/10a) | Herbicidal effects Am (slender amaranth (Am) [2]; dose 1.6 g ai/10a) | Herbicidal effects Am (slender amaranth (Am) [2]; dose 6.3 g ai/10a) | Herbicidal effects Ch [3, 5] | Herbicidal effects Am (slender amaranth (Am) [4]; [5])

C=CCN1C(=O)COc2cc(Cl)c(-c3ccc(C(F)(F)F)n(C)c3=O)cc21 [Compound 2-26]
5: Herbicidal effects Ab (China jute (Ab); dose 6.3 g ai/10a) | Herbicidal effects Ch ([1]; dose 6.3 g ai/10a) | Herbicidal effects Se (green foxtail (Se); dose 6.3 g ai/10a) | Herbicidal effects Po (pale smartweed (Po); dose 6.3 g ai/10a) | Herbicidal effects Am (slender amaranth (Am) [2]; dose 6.3 g ai/10a) | Herbicidal effects Ch [3, 5] | Herbicidal effects Am (slender amaranth (Am) [4]; [5])

COc1cc(-c2ccc(C(F)(F)F)n(N)c2=O)c(F)cc1Cl [1-179]
5: Herbicidal effects Ch [3, 5] | Herbicidal effects Am (slender amaranth (Am) [4]; [5])

C#CC(O)c1cc(-c2ccc(C(F)(F)F)n(C)c2=O)c(F)cc1Cl (centres unmarked) [Compound 1-202]
5: Herbicidal effects Ab (China jute (Ab); dose 1.6 g ai/10a) | Herbicidal effects Ch ([1]; dose 1.6 g ai/10a) | Herbicidal effects Se (green foxtail (Se); dose 1.6 g ai/10a) | Herbicidal effects Po (pale smartweed (Po); dose 1.6 g ai/10a) | Herbicidal effects Am (slender amaranth (Am) [2]; dose 1.6 g ai/10a)
